Data from patent US9682961B2, “Quinazoline derivative” (CARNA BIOSCIENCES, INC., priority 2013, dated 2017).

Tests used:
c-MYC protein expression = test: Expression level of Wnt/β-catenin target protein c-MYC by western blotting in HCT116 cells; format: cell-based; conditions: Homo sapiens, 24 hours, read-out: Inhibition rate (%) c-MYC protein
Experimental: Expression levels of target proteins of the Wnt/β-catenin signaling pathway was analyzed by western blotting method, and effects of the compound of the present invention on Wnt/β-catenin signaling activity were studied by using a change of these levels as an indicator. HCT116 cells cultured in the same manner as in Test Example 2 were diluted with the medium 1 so as to have a cell concentration of 5×10^5 cells/mL, and 5 mL of the diluted cells were seeded into T25 flasks, followed by culturing overnight in the 5% CO2 incubator. Next day, solutions of the compound to be tested obtained by diluting 10 and 3 mM DMSO stock solutions of the compound to be tested 100-fold with the medium 1 were added to each flask so that the amount of the solution in the flask was one tenth of the amount of the final solution (final concentrations of the compound to be tested: 10 and 3 μM). […] Supernatant was recovered by centrifugal operation (15,000 rpm, 10 min.) and amounts of proteins were determined. […] Thereafter, using a CCD camera (GE Healthcare Co., ImageQuant LAS 500), the respective bands were detected by chemiluminescence. The detected bands were quantified by densitometry (GE Healthcare Co., ImageQuant TL v8.1.0.0). Inhibition rates were calculated from the intensities of the bands in the respective groups, with the luminescence of the band of the DMSO added group being 100%. […]

[1] = test system: human-derived colorectal cancer cell line HCT116; test: Antitumor effects in mice model subcutaneously transplanted with human-derived cancer cell line; format: in vivo; conditions: oral, twice a day for 14 days, HCT116 nude mice
Experimental: The antitumor effects of the compound of the present invention were studied using nude mice subcutaneously transplanted with a human-derived colorectal cancer cell line HCT116, in which the Wnt signaling pathway was constantly activated.
HCT116 cells cultured in the same manner as in Test Example 2 were adjusted with D-PBS (NACALAI TESQUE, INC.) so as to have a cell concentration of 7.5×10^7/mL, and the cell suspension was ice cooled in a 15 mL tube. To the cell suspension, Matrigel (BD Biosciences Co.) was added in an amount of one-fourth of the cell suspension to prepare a preparation for cell transplantation. Into the back of BALB/c Slc-nu/nu mice (female, 8 weeks old, Japan SLC, Inc.), 0.1 mL of the preparation for cell transplantation was subcutaneously injected. […]
To the respective mice transplanted with cancer cells (nine in each group), forced oral administration of doses of the substance to be tested calculated from their body weights was performed twice a day (at intervals of six hours or more) for 14 days in total. Tumor volumes of the respective mice were calculated using the following formulas, and the antitumor effects were evaluated using a relative tumor volume ratio as an indicator.

O[C@H]1CC[C@@H](Oc2cccc3cnc(Nc4ccc5nc[nH]c5c4)nc23)CC1 [Example 1, cis-4-({2-[(1H-benzo[d]imidazol-6-yl)amino]quinazolyn-8-yl}oxy)cyclohexanol]
inhibition at 3 µM (c-MYC protein expression; HCT-116, 3 μM): 63.9% | inhibition at 10 µM (c-MYC protein expression; HCT-116, 10 μM): 90.2% | Tumor growth inhibition rate (TGI) on the last administration day ([1]; 40 mg/kg): 42% | Tumor growth inhibition rate (TGI) on the last administration day ([1]; 80 mg/kg): 70%
